Data from PubChem BioAssay (NCI).
Several values for one entry are separate records, joined by “and”; a condition that tells them apart may be missing. Equal entries are not always repeated.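 Growth conditions: 96-well plates. Treatment: test compound, 48 hours, 5 concentrations. Analysis: linear interpolation between bracketing concentrations; unreached endpoints set to highest concentration. GI50 = concentration required for 50% inhibition of growth. At the TGI there is no net growth.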

What was measured:
Assay in all cases: NCI anticancer screen, dose series, 48 h
CAKI-1 renal = tested on: CAKI-1 renal
LOX IMVI melanoma = tested on: LOX IMVI melanoma
MOLT-4 leukemia = tested on: MOLT-4 leukemia
OVCAR-3 ovarian = tested on: OVCAR-3 ovarian
RPMI-8226 leukemia = tested on: RPMI-8226 leukemia
SF-268 CNS = tested on: SF-268 CNS
SNB-19 CNS = tested on: SNB-19 CNS
UACC-62 melanoma = tested on: UACC-62 melanoma
MCF7 breast = tested on: MCF7 breast
MDA-MB-231 breast = tested on: MDA-MB-231 breast

| SMILES | TGI (CAKI-1 renal) | TGI (LOX IMVI melanoma) | TGI (MOLT-4 leukemia) | TGI (OVCAR-3 ovarian) | TGI (RPMI-8226 leukemia) | TGI (SF-268 CNS) | TGI (SNB-19 CNS) | TGI (UACC-62 melanoma) | GI50 (CAKI-1 renal) | GI50 (MCF7 breast) | TGI (MCF7 breast) | GI50 (MDA-MB-231 breast) | TGI (MDA-MB-231 breast) | GI50 (MOLT-4 leukemia) | GI50 (OVCAR-3 ovarian) | GI50 (RPMI-8226 leukemia) | GI50 (SF-268 CNS) | GI50 (SNB-19 CNS) | GI50 (UACC-62 melanoma) | GI50 (LOX IMVI melanoma) |
| --- | --- | --- | --- | --- | --- | --- | --- | --- | --- | --- | --- | --- | --- | --- | --- | --- | --- | --- | --- | --- |
| O=[N+]([O-])c1cc(I)cc(/C=N/NS(=O)(=O)c2ccc(Cl)cc2)c1O | 54.9 µM | 36.5 µM | 51.5 µM | 36.1 µM | 59.7 µM | 77.4 µM | > 100 µM | 57.6 µM |  |  |  |  |  |  |  |  |  |  |  |  |
| O=C(O)CCSC(=O)Nc1cccc2ccccc12 | > 100 µM | > 100 µM | > 100 µM | > 100 µM | > 100 µM | > 100 µM | > 100 µM | > 100 µM |  |  |  |  |  |  |  |  |  |  |  |  |
| CCc1cccc(C(C)CC)c1NC(=O)C(=O)Cc1nc2ccccc2o1 (centres undefined) | > 50 µM | > 50 µM | > 42 µM | > 50 µM | > 50 µM | > 50 µM | > 50 µM | > 50 µM |  |  |  |  |  |  |  |  |  |  |  |  |
| COc1ccc2c(c1)C(=O)c1c-2c(N2CCN(C(=O)CCNCCNCCN)CC2)nc2ccccc12 | 47.8 µM |  | 2.18 µM | 61.2 µM | 9.71 µM | 20.3 µM | 39.8 µM | 55.3 µM | 18.8 µM | 5.11 µM | 21.6 µM | 7.25 µM | 27.5 µM | 1 µM | 16.8 µM | 2.93 µM | 4.97 µM | 15 µM | 22.3 µM |  |
| CCN(CC)CCCNc1n[n+]([O-])c2ccccc2[n+]1[O-] | > 100 µM |  | 11.4 µM |  | 23.3 µM | > 100 µM | > 100 µM | 26 µM |  |  | 42.4 µM |  | 31.4 µM |  |  |  |  |  |  |  |
| CC(C)CCCCCCCCCCCCC(=O)NCC(=O)NC1C(C)OC(Nc2ncnc3nc[nH]c23)C(O)C1O (centres undefined) |  |  | 0.00788 µM and 0.0323 µM | 0.0024 µM |  | 0.343 µM |  | 0.00892 µM and 0.0226 µM | 0.00264 µM |  | 0.264 µM |  |  | 0.00213 µM |  |  | 0.000965 µM | 0.00845 µM | 0.000425 µM and 0.000705 µM | 0.0002 µM |
| CN(C)CCN(C)C(=O)c1cccc2cccc(C(=O)O)c12 |  | > 100 µM | > 100 µM | > 100 µM | > 100 µM | > 100 µM | > 100 µM | > 100 µM |  |  |  |  |  |  |  |  |  |  |  |  |
| O=C(C=Nc1ccccc1S)c1ccco1 | 33.7 µM |  | 27.5 µM | 31.2 µM | 46.1 µM | 40.7 µM | 16.3 µM | 29.5 µM |  |  |  |  |  |  |  |  |  |  |  |  |
| O=C1c2cc3c(cc2-c2c1c1ccc(F)cc1c(=O)n2C[C@H](O)[C@H](O)[C@H](O)CO)OCO3 |  |  |  | 0.431 µM | 5.6 µM | 2.97 µM | > 100 µM | 0.195 µM |  | 0.0259 µM | 0.215 µM | 0.342 µM | 6.18 µM |  | 0.167 µM | 0.505 µM | 0.0704 µM | 0.0927 µM | 0.04 µM |  |
| CCN(CCO)CCCC(C)Nc1ccnc2cc(Cl)ccc12 (centres undefined) | > 100 µM | > 100 µM |  | > 100 µM |  | > 100 µM | > 100 µM | > 100 µM | > 100 µM | > 100 µM | > 100 µM | > 100 µM | > 100 µM |  | > 100 µM |  | > 100 µM | > 100 µM | > 100 µM | > 100 µM |
| COc1ccc([Se][Se]c2ccc(OC)cc2OC)c(OC)c1 | 18.6 µM |  | 19.2 µM | 20 µM | 6.96 µM | 4.97 µM | 21 µM | 4.14 µM |  |  |  |  |  |  |  |  |  |  |  |  |
| Cc1[nH]c2ccccc2c1C1=NO/C(=N\O)C(c2c(C)[nH]c3ccccc23)C1 (centres undefined) | > 100 µM |  | 69.6 µM | 70.7 µM | > 100 µM | > 100 µM | > 100 µM | 62.7 µM |  |  |  |  |  |  |  |  |  |  |  |  |
| N#CC1(N2CCCC2)CCC2(CC1)OCCO2 | > 100 µM | > 100 µM | > 100 µM | > 100 µM | > 100 µM | > 100 µM | > 100 µM | > 100 µM |  |  |  |  |  |  |  |  |  |  |  |  |
| C=CCOc1ccc(N)c([N+](=O)[O-])c1 | > 100 µM | > 100 µM | > 100 µM |  | > 100 µM | > 100 µM | > 100 µM | > 100 µM |  |  | > 100 µM |  |  |  |  |  |  |  |  |  |
| COc1ccc(-c2cc(=O)c3cc(C)c(C)c(C(=O)O)c3o2)cc1 | > 100 µM |  | > 100 µM | > 100 µM | > 100 µM |  | > 100 µM | 30.7 µM |  |  |  |  |  |  |  |  |  |  |  |  |
| C[C@]12CCc3nonc3C1CC[C@@H]1C2CC[C@@]2(C)C1CC[C@@H]2O (some centres undefined) | > 100 µM | > 100 µM | > 100 µM | > 100 µM | > 100 µM | > 100 µM | > 100 µM | > 100 µM |  |  |  |  |  |  |  |  |  |  |  |  |
| CCOC(=O)CNC(=O)OCc1ccccc1 | > 100 µM | > 100 µM | > 100 µM | > 100 µM |  | > 100 µM | > 100 µM | > 100 µM |  |  |  |  |  |  |  |  |  |  |  |  |
| CC[C@]12C=CCN3CC[C@@]4(c5ccc(OC)cc5N(C)[C@H]4[C@@](O)(C(=O)OC)[C@@H]1OC(=O)CCC(=O)O[C@H]1CC[C@H]4[C@@H]5CC[C@H]6CC(=O)CC[C@]6(C)[C@H]5CC[C@]14C)[C@@H]32 |  | 11.7 µM | > 100 µM | > 100 µM |  | > 100 µM | > 100 µM | > 100 µM |  | 2.42 µM | > 100 µM | 3.03 µM | 11.3 µM | 2.59 µM | 3.05 µM |  | 4.81 µM | 4.85 µM | 3.25 µM | 2.83 µM |
| O=C1NC2(CCCC2)C2CCCCC12O (centres undefined) | > 100 µM | > 100 µM | > 100 µM | > 100 µM | > 100 µM | > 100 µM | > 100 µM | > 100 µM |  |  |  |  |  |  |  |  |  |  |  |  |
| Brc1ccc(C=NC23CC4CC(CC(C4)C2)C3)cc1 | > 100 µM | > 100 µM | > 100 µM | > 100 µM | > 100 µM | > 100 µM | > 100 µM | > 100 µM |  |  |  |  |  |  |  |  |  |  |  |  |
| CC(=O)NCc1c(C(N)=O)ncn1Cc1ccccc1 | > 100 µM | > 100 µM | > 100 µM | > 100 µM | > 100 µM |  | > 100 µM | > 100 µM |  |  |  |  |  |  |  |  |  |  |  |  |
| [Co].[O-]c1cccnc1C=Nc1ccccc1.[OH3+] |  | > 100 µM | > 100 µM | > 100 µM | > 100 µM | > 100 µM | > 100 µM | > 100 µM |  |  |  |  |  | 78.3 µM | > 100 µM | > 100 µM | 99.3 µM | > 100 µM | 86.1 µM | > 100 µM |
